Test system: human telomeric G-quadruplex (139-nt GQ strand) in DNA origami nanobowl (DNA, G4) TTACCTTTCCCCTCTGGCAAAACTATTCCGGTAAACTTAGGGTTAGGGTTAGGGTTAGGGTTATTTTTTTTATTTCTTCAGGCTTAACCATGCATTCCGATTGCAGCTTGCATCCATTGCATCGCTTGAATTGTCCAGC
Experiment: optical tweezers mechanical unfolding, force populations
Details: 100 mM KCl, 10 mM MgCl2; 20 mM Tris pH 7.8, 1 mM EDTA; free PDS 20-500 nM; bound populations outside and inside nanobowl rise

binding: yes
Compound: NCCOc1cc(C(=O)Nc2cc(OCCN)c3ccccc3n2)nc(C(=O)Nc2cc(OCCN)c3ccccc3n2)c1

— PMC8789071 (2022)
